Experimental data: patent publication US20240254138A1, “TRICYCLIC PYRIMIDINES AS CYCLIN-DEPENDENT KINASE 7 (CDK7) INHIBITORS” (JANSSEN PHARMACEUTICA NV, priority 2021, published 2024)
Where two headings read alike, the source gives them in different places.

Assays:
[1] = test system: RNA Polymerase II Serine 5 phosphorylation (Rpb1 CTD, downstream substrate of CDK7) in A549 cells; assay: Imaging-based cellular RNA PolII Ser5 phosphorylation assay in A549 cells; type: cell-based, human; details: wild-type CDK7, RNA PolII Ser5 phosphorylation, averaged over all measurements; for IC50: Homo sapiens, A549, A549 cells, read-out: CDK7_A549 Wild-type CDK7 (pIC50) (converted); for CDK7_A549 Wild-type CDK7 (pIC50): A549 cells
How it was run: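 A549 cells, seeded 1000/well in DMEM with 1% FBS and cultured 20 h, were treated with compound for 3 h at 37 °C. Ser5-phospho-Rpb1 CTD detected by immunofluorescence imaging after fixation and methanol permeabilization; IC50 from curve fit normalized to DMSO and 10 μM reference-compound controls.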

[2] = test system: RNA Polymerase II Serine 5 phosphorylation in A549 cells overexpressing CDK7-mutant (C312S); assay: Imaging-based cellular RNA PolII Ser5 phosphorylation assay in A549 cells overexpressing CDK7-mutant (C312S); type: cell-based, human; details: RNA PolII Ser5 phosphorylation, averaged over all measurements; for IC50: Homo sapiens, A549, A549 cells overexpressing CDK7-mutant (C312S), read-out: CDK7_A549 mutant hCDK7(pIC50) (converted); for CDK7_A549 mutant hCDK7(pIC50): A549 cells overexpressing CDK7-mutant (C312S)
How it was run: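 A549 cells overexpressing CDK7 C312S (with endogenous wild-type CDK7) were treated with compound for 3 h at 37 °C in 1% FBS medium. Phospho-Rpb1 CTD Ser5 was immunostained after fixation and imaged. IC50 came from curve fit of % control, normalised to DMSO and 10 μM reference-compound controls.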

[3] = molecular target: CDK7/cyclinH/MAT1 trimeric complex (Homo sapiens, UniProt P50613); assay: In vitro CDK7 assay, potency of irreversible covalent inhibitors (kinact/KI), coupled PK/LDH ADP readout at 340 nm
CDK7/cyclinH/MAT1 trimeric complex, sequence (P50613 whole entry): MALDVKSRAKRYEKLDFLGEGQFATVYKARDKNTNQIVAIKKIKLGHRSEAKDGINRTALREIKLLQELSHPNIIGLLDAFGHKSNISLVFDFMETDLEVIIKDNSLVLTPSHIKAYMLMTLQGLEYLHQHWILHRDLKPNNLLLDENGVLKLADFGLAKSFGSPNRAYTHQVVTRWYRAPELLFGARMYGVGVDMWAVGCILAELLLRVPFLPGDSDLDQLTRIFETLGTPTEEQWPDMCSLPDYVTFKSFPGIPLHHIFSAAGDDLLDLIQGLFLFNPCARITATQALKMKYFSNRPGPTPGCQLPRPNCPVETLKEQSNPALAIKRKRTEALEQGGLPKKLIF
CDK7/cyclinH/MAT1 trimeric complex, sequence (P51946 whole entry partner): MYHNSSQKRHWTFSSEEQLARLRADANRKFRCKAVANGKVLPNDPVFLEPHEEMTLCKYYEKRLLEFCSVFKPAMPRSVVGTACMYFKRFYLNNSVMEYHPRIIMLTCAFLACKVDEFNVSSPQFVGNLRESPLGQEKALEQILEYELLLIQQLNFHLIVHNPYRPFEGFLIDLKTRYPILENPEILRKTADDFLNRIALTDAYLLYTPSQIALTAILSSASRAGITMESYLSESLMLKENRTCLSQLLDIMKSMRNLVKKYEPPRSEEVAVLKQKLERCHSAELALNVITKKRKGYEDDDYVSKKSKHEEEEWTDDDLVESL
CDK7/cyclinH/MAT1 trimeric complex, sequence (P51948 whole entry partner): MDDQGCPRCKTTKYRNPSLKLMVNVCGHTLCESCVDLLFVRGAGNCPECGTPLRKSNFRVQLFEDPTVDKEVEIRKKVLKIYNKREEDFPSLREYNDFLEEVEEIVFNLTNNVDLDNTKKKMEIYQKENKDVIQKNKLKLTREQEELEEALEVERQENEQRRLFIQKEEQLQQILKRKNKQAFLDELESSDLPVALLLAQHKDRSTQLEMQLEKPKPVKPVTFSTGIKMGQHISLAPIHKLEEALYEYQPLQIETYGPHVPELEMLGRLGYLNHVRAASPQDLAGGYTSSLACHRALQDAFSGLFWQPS

[4] = CDK7 (KI(μM)), […], 1 mM ATP, room temperature, averaged values over all measurements
[5] = read-out: CDK7 (kinact, s^−1), kinact = maximal rate of inactivation, 1 mM ATP, room temperature, averaged values over all measurements
[6] = read-out: CDK7 (kinact/KI, M^−1*s^−1), potency of irreversible covalent inhibitors, 1 mM ATP, room temperature, averaged values over all measurements
[7] = CDK7 (20 nM enz.) (KI, μM), 20 nM enzyme
[8] = read-out: CDK7 (20 nM enz.) (kinact, s^−1), 20 nM enzyme
[9] = read-out: CDK7 (20 nM enz.) (kobs/[I], M^−1*s^−1), 20 nM enzyme
[10] = read-out: CDK7 (20 nM enz.) (kinact/KI, M^−1*s^−1), 20 nM enzyme

SMILES | IC50 [1] [nM] | IC50 [2] [nM] | Ki [3, 4] [µM] | kinact [3, 5] [s⁻¹] | kinact/KI [3, 6] [M⁻¹ s⁻¹] | other results
C=CC(=O)N1CC(N2CCC(c3ccc4c(c3)Nc3nccc(-c5cnc6[nH]ccc6c5)c3CO4)CC2)C1 [Compound 31] | 437 | > 10000 | 0.175 | 0.000112 | 638 | –
C=CC(=O)N1CC(C#Cc2ccc3c(c2)Nc2nccc(C4CCOCC4)c2CO3)C1 [Compound 33] | 603 | > 10000 | 0.15 | 0.000158 | 1050 | –
C=CC(=O)N1CCC(N2CC(c3ccc4c(c3)Nc3nccc(C5CCOCC5)c3CO4)C2)CC1 [Compound 36] | – | – | – | – | – | CDK7_A549 Wild-type CDK7 (pIC50) [1]: 6.89; CDK7_A549 mutant hCDK7(pIC50) [2]: 5.04; CDK7 (20 nM enz.) (kinact/KI, M^−1*s^−1) ([3]; 20 nM enzyme): 535 M⁻¹ s⁻¹; Ki [3, 7]: 0.092 µM; kinact [3, 8]: 4.92e-05 s⁻¹
C=CC(=O)N1CC(N2CCC(c3ccc4c(c3)Nc3ncc(C)c(N5CCOCC5)c3CO4)CC2)C1 [Compound 37] | 851 | > 10000 | 0.129 | 0.00011 | 849 | –
C=CC(=O)N1CC(N2CCC(c3ccc4c(c3)Nc3nccc(-c5cnn(C)c5)c3CO4)CC2)C1 [Compound 39] | 141 | > 10000 | – | – | 803 | –
C=CC(=O)N1CC(N2CCCC(c3ccc4c(c3)Nc3nccc(N5CCOCC5)c3CO4)C2)C1 (stereo not drawn) [Compound 40] | 1120 | > 10000 | 0.209 | 6.41e-05 | 306 | –
C=CC(=O)N1CC(N2CCCC(c3ccc4c(c3)Nc3nccc(N5CCOCC5)c3CO4)CC2)C1 (stereo not drawn) [Compound 42] | 123 | > 10000 | 0.0811 | 6.17e-05 | 761 | –
C=CC(=O)N1CC(c2ccc(-c3ccc4c(c3)Nc3nccc(N5CCOCC5)c3CO4)cn2)C1 [Compound 43] | 339 | > 10000 | 0.0497 | 5.46e-05 | 1100 | –
C=CC(=O)N1CC(N2CCC(c3ccc4c(c3)Nc3ncc(C#N)c(N5CCOCC5)c3CO4)CC2)C1 [Compound 45] | 1150 | > 10000 | 0.123 | 0.000137 | 1110 | –
C=CC(=O)N1CC(N2CCC(c3ccc4c(c3)Nc3nccc(N5CCC6(CCO6)CC5)c3CO4)CC2)C1 [Compound 46] | 631 | > 10000 | 0.223 | 0.000102 | 456 | –
C=CC(=O)N1CC(N2CCC(c3ccc4c(c3)Nc3nccc(N5CCOC6(CCOCC6)C5)c3CO4)CC2)C1 [Compound 47] | 871 | > 10000 | 0.207 | 0.000125 | 605 | –
C=CC(=O)N1CC(N2[C@@H]3CC[C@H]2C[C@@H](c2ccc4c(c2)Nc2nccc(N5CCOCC5)c2CO4)C3)C1 [Compound 49] | 53.7 | ~10000 | – | – | 990 | kinact/KI [3, 9]: 1150 M⁻¹ s⁻¹
CC#CC(=O)N1CC(N2CCC(c3ccc4c(c3)Nc3nccc(N5CCOCC5)c3CO4)CC2)C1 [Compound 50] | ~178 | > 10000 | 0.132 | 0.000144 | 1090 | –
C=CC(=O)N1CC(c2nc(C)c(-c3ccc4c(c3)Nc3nccc(N5CCOCC5)c3CO4)c(C)n2)C1 [Compound 51] | 417 | > 10000 | 0.0706 | 7.84e-05 | 1110 | –
C=CC(=O)N1CC(N2CCC(c3ccc4c(c3)OCc3c(-c5cnn(C)c5)ccnc3N4)CC2)C1 [Compound 52] | 282 | 2820 | 0.166 | 0.000166 | 998 | –
C=CC(=O)N1CC(N2CCC(c3ccc4c(c3)Nc3nccc(N5CCCOCC5)c3CO4)CC2)C1 [Compound 53] | 186 | > 10000 | – | – | 773 | –
C=CC(=O)N1CC(N2[C@@H]3CC[C@H]2C[C@H](c2ccc4c(c2)Nc2nccc(N5CCOCC5)c2CO4)C3)C1 [Compound 54] | 145 | 8130 | 0.1 | 0.0001 | 997 | –
C=CC(=O)N1CCC(c2ccc3c(c2)OCc2c(N4CCOCC4)ccnc2N3)C1 (stereo not drawn) [Compound 55] | > 10000 | > 10000 | – | – | 2.45 | –
C=CC(=O)N1CC(c2ncc(-c3ccc4c(c3)Nc3nccc(N5CCOCC5)c3CO4)cn2)C1 [Compound 56] | 182 | > 10000 | 0.0673 | 6.99e-05 | 1040 | –
O=C(/C=C/CN1CCOCC1)N1CC(N2CCC(c3ccc4c(c3)Nc3nccc(N5CCOCC5)c3CO4)CC2)C1 [Compound 57] | 1200 | > 3980 | 0.248 | 0.000129 | 518 | –
C=CC(=O)N1CC(c2cc(-c3ccc4c(c3)Nc3nccc(N5CCOCC5)c3CO4)ccn2)C1 [Compound 58] | 490 | > 10000 | 0.112 | 5.76e-05 | 516 | –
C=CC(=O)N1CC(N2CCC(c3cc(C)c4c(c3)Nc3nccc(C5CCOCC5)c3CO4)CC2)C1 [Compound 59] | 72.4 | – | – | – | – | CDK7_A549 mutant hCDK7(pIC50) [2]: <5.4; kinact/KI [3, 10]: 1480 M⁻¹ s⁻¹
C=CC(=O)N1CC(N2CCC(c3cc(C)c4c(c3)Nc3nccc(N5CCOCC5)c3CO4)CC2)C1 [Compound 66] | – | – | – | – | – | CDK7_A549 Wild-type CDK7 (pIC50) [1]: 7.16; CDK7_A549 mutant hCDK7(pIC50) [2]: <5; kinact/KI [3, 9]: 1030 M⁻¹ s⁻¹
C=CC(=O)N1CC(N2[C@@H]3CC[C@H]2C[C@@H](c2ccc4c(c2)Nc2nccc(N5CCOCC5)c2CO4)C3)C1 [Compound 68] | – | – | – | – | – | CDK7_A549 Wild-type CDK7 (pIC50) [1]: 7.4; CDK7_A549 mutant hCDK7(pIC50) [2]: 5.14; CDK7 (20 nM enz.) (kobs/[I], M^−1*s^−1) ([3]; 20 nM enzyme): 1369 M⁻¹ s⁻¹
C=CC(=O)N1CC(N2CCC(c3cc(C)c4c(c3)Nc3nccc(C5CCOCC5)c3CO4)CC2)C1 [Compound 73] | – | – | – | – | – | CDK7_A549 Wild-type CDK7 (pIC50) [1]: 7.32; CDK7_A549 mutant hCDK7(pIC50) [2]: <5; CDK7 (20 nM enz.) (kinact/KI, M^−1*s^−1) ([3]; 20 nM enzyme): 1301.8 M⁻¹ s⁻¹
C=CC(=O)N1CC(N2CCC(O)(c3ccc4c(c3)Nc3nccc(N5CCOCC5)c3CO4)CC2)C1 [Compound 80] | 417 | > 10000 | – | – | – | Ki [3, 7]: 0.0563 µM; kinact [3, 8]: 4.16e-05 s⁻¹; kinact/KI [3, 10]: 740 M⁻¹ s⁻¹

More lines, main results first:

IC50 [1] [nM] | IC50 [2] [nM] | Ki [3, 4] [µM] | kinact [3, 5] [s⁻¹] | kinact/KI [3, 6] [M⁻¹ s⁻¹] | SMILES | other results
977 | > 10000 | – | – | – | C=CC(=O)N1CC(N2CCC(c3ccc4c(c3)Nc3ncc(Cl)c(N5CCS(=O)(=O)CC5)c3CO4)CC2)C1 [Compound 60] | Ki [3, 7]: 0.128 µM; kinact [3, 8]: 6.43e-05 s⁻¹; kinact/KI [3, 10]: 502 M⁻¹ s⁻¹
1620 | > 10000 | – | – | – | C=CC(=O)N1CC(c2ccnc(-c3ccc4c(c3)Nc3nccc(N5CCOCC5)c3CO4)c2)C1 [Compound 61] | Ki [3, 7]: 1.32 µM; kinact [3, 8]: 4.84e-05 s⁻¹; kinact/KI [3, 10]: 36.6 M⁻¹ s⁻¹
77.6 | > 10000 | – | – | – | C=CC(=O)N1CC(N2CCC(c3cc(F)c4c(c3)Nc3nccc(N5CCOCC5)c3CO4)CC2)C1 [Compound 62] | Ki [3, 7]: 0.0266 µM; kinact [3, 8]: 6.42e-05 s⁻¹; kinact/KI [3, 10]: 2410 M⁻¹ s⁻¹
288 | > 10000 | – | – | – | C=CC(=O)N1CC(N2CCC(c3ccc4c(c3)Nc3nccc(N5CCOC[C@@H]5C)c3CO4)CC2)C1 [Compound 63] | Ki [3, 7]: 0.0857 µM; kinact [3, 8]: 7.59e-05 s⁻¹; kinact/KI [3, 10]: 885 M⁻¹ s⁻¹
> 10000 | > 10000 | – | – | – | C=CC(=O)N1CCC2(CC1)CC(Cc1ccc3c(c1)Nc1nccc(C4CCOCC4)c1CO3)C2 [Compound 64] | Ki [3, 7]: 0.445 µM; kinact [3, 8]: 1.43e-05 s⁻¹; kinact/KI [3, 10]: 32 M⁻¹ s⁻¹
67.6 | 8710 | – | – | – | C=CC(=O)Nc1ccc(CCc2ccc3c(c2)Nc2nccc(N4CCOCC4)c2CO3)cn1 [Compound 65] | kinact/KI [3, 9]: 1160 M⁻¹ s⁻¹
245 | > 10000 | – | – | – | C=CC(=O)N1CC(N2CCC(c3cc(C)c4c(c3)Nc3nccc(N5CCS(=O)(=O)CC5)c3CO4)CC2)C1 [Compound 71] | Ki [3, 7]: 0.0575 µM; kinact [3, 8]: 5.6e-05 s⁻¹; kinact/KI [3, 10]: 973 M⁻¹ s⁻¹
182 | > 10000 | – | – | – | C=CC(=O)N1CC(N2CCC(c3ccc4c(c3)Nc3nccc(N5CCOC6(CC6)C5)c3CO4)CC2)C1 [Compound 77] | Ki [3, 7]: 0.0571 µM; kinact [3, 8]: 5.75e-05 s⁻¹; kinact/KI [3, 10]: 1010 M⁻¹ s⁻¹
26.9 | 8130 | – | – | – | C=CC(=O)N1CCC(N2CCC(c3cc(C)c4c(c3)Nc3nccc(N5CCOCC5)c3CO4)CC2)C1 (stereo not drawn) [Compound 78] | kinact/KI [3, 9]: 908 M⁻¹ s⁻¹
37.2 | 5890 | – | – | – | C=CC(=O)N1CCC(N2CCC(c3cc(C)c4c(c3)Nc3nccc(N5CCOCC5)c3CO4)CC2)CC1 [Compound 79] | kinact/KI [3, 9]: 766 M⁻¹ s⁻¹
